From patent publication US7638540B2, “Benzofuran compound and medicinal composition containing the same” (The New Industry Research Organization, priority 2003, dated 2009)

What was measured:
LTB4 receptor = assay: TXB2 release from guinea pig eosinophils stimulated with LTB4 (LTB4 receptor antagonist activity); format: cell-based; conditions: 10^−3 M test compound (37.5 μl) added to 300 μl cell suspension, then 10^−7 M LTB4 (37.5 μl), 37° C. 15 min, positive control 100, negative control 0, N.D. = TXB2 concentration at measurement limit or less
Method: The LTB4 receptor antagonist activity of the test compound was examined using, as an index, thromboxane B2 (TXB2) released when stimulating eosinophil of guinea pig with LTB4.
Based on the method described in Japanese Journal of Pharmacology, vol. 70, p. 337-345 (1996) etc., eosinophils of guinea pig were prepared. A cell suspension (300 μl, 1.25×10^6 cells/ml) was placed in a 5 ml polypropylene test tube and, after incubation at 37° C. for 5 min., 10^−3 M test compound (37.5 μl) dissolved in 0.1% DMSO aqueous solution was added and the cells were continuously cultured for 5 min. Then, 10^−7 M LTB4 (37.5 μl) was added to induce the reaction and the cells were incubated at 37° C. for 15 min. The reaction was quenched in ice water, and the culture was centrifuged at 4° C., 3000 rpm for 10 min. The obtained supernatant was prepared as a sample for TXB2 measurement, and preserved at −80° C. before use for the measurement. The quantitation of TXB2 was performed using a TXB2 enzyme immunoassay kit (manufactured by Cayman Chemical Company). The release ratio (%) of TXB2 from the eosinophils was determined by the following formula: release ratio (%) of TXB2=[(average value of test compound administration group−average value of negative control group)/(average value of positive control group−average value of negative control group)]×100
As used herein, the positive control group means a group to which stimulation with LTB4 was applied but the same volume of a medium was given instead of the test compound, and the negative control group means a group to which stimulation with LTB4 was not applied, the same volume of a medium was given instead of LTB4, and the same volume of a medium was given instead of the test compound. When the release ratio of TXB2 is smaller than 0, it means that the measured TXB2 concentration was lower than that of the negative control group. When the TXB2 concentration in the sample was the measurement limit or less, N.D. is indicated.

human BLT2 = biological target: T1, human BLT2 (Homo sapiens, UniProt Q9NPC1); assay: LTB4-induced increase in intracellular calcium ion concentration in CHO cells expressing human BLT2 (Fluo-3, Flexstation); format: cell-based; conditions: compound 10 μM final, LTB4 100 nM final
T1 construct: expressed in transfected cells; host or cells: CHO cells
T1 sequence (Q9NPC1 1-358): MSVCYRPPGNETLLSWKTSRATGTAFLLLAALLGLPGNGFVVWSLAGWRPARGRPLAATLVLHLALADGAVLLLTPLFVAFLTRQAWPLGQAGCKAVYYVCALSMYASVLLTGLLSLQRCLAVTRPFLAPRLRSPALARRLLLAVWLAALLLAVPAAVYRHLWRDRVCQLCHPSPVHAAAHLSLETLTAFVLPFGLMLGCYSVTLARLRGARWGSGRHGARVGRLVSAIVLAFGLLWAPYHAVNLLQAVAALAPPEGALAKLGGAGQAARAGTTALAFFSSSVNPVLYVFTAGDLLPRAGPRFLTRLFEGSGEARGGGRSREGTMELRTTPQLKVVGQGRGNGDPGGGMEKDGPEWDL
Method: CHO cells habouring a gene encoding human BLT1 or human BLT2 and functionally expressing the receptor were seeded in a 96 well plate at 4×10^4 cells/well, and cultured at 37° C. for 60 min. The culture supernatant was removed and a loading buffer (100 μl) containing 4 μM Fluo-3 (manufactured by Dojindo), 0.04% pluoronic acid (manufactured by Sigma) and 1% serum was added. The mixture was culture at 37° C. for 30 min to introduce Fluo-3 into the cells. After culture, the cells were washed with a buffer, and a buffer containing various compounds (10 μM (final concentration)) was added, and then 100 nM (final concentration) of LTB4 was added. Changes in the intracellular calcium ion concentration were measured with Flexstation (manufactured by Molecular Devices Corporation) as increase in the fluorescence intensity (area under a curve in a time-course graph of fluorescence intensity in 10 min measurement). As a positive control of BLT1 and BLT2 antagonists, ZK158252 was used.

SMILES	Amount of TXB2 release (%) (LTB4 receptor)	Suppressive effect on increase in intracellular calcium ion concentration compared with ZK158252 (in words) (human BLT2)	melting point
COc1cccc(NC(=O)/C=C(\C)c2cc3cccc(OCCCC(=O)O)c3o2)c1 [Example 29, (E)-4-{2-[2-(3-methoxyphenylcarbamoyl)-1-methylvinyl]benzofuran-7-yloxy}butyric acid]	−0.19%	almost of the same level as or not less than that by ZK158252	155.5 to 157.5 °C
CCOC(=O)CCCOc1cccc2cc(/C(C)=C/C(=O)N3CCOCC3)oc12 [Example 30, Ethyl (E)-4-[2-(1-methyl-3-morpholino-3-oxo-1-propenyl)benzofuran-7-yloxy]butyrate]	0.086%	almost of the same level as or not less than that by ZK158252	90 to 94.8 °C
CCN(CC)C(=O)/C=C(\C)c1cc2cccc(OC(C)C)c2o1 [Example 33, (E)-3-(7-isopropoxybenzofuran-2-yl)-N,N-diethyl-2-butenamide]	−0.199%	almost of the same level as or not less than that by ZK158252	
CCOC(=O)CCCOc1cccc2cc(/C(C)=C\C(=O)Nc3ccc(OC)c(OC)c3)oc12 [Example 46, Ethyl (Z)-4-{2-[2-(3,4-dimethoxyphenylcarbamoyl)-1-methylvinyl]benzofuran-7-yloxy}butyrate]	45.62%	almost of the same level as or not less than that by ZK158252	101.5 to 105 °C
CCOC(=O)CCCOc1cccc2cc(/C(C)=C/C(=O)NCCc3ccc(OC)c(OC)c3)oc12 [Example 49, Ethyl (E)-4-(2-{2-[2-(3,4-dimethoxyphenyl)ethylcarbamoyl]-1-methylvinyl}benzofuran-7-yloxy)butyrate]	2.37%	almost of the same level as or not less than that by ZK158252	114 to 115.5 °C
C/C(O)=C(\C#N)C(=O)Nc1c(C(=O)c2ccc(Cl)cc2)oc2ccc(Br)cc12 [Example 98, (Z)-N-[5-bromo-2-(4-chlorobenzoyl)benzofuran-3-yl]-2-cyano-3-hydroxy-2-butenamide]		almost of the same level as or not less than that by ZK158252	263.3 to 265.3 °C
C/C=C/C(=O)Nc1c(C#N)oc2ccc(Br)cc12 [Example 117, (E)-N-(5-bromo-2-cyanobenzofuran-3-yl)-2-butenamide]	54.95%		206.5 to 208.2 °C
C/C=C/C(=O)Nc1c(C(=O)OCC)oc2ccccc12 [Example 118, Ethyl (E)-3-methyl-acryloylaminobenzofurane-2-carboxylate]	73.84%		143.2 to 145.6 °C
CCOC(=O)c1oc2ccccc2c1NC(=O)/C=C/c1ccccc1 [Example 119, Ethyl (E)-3-(3-phenylacryloylamino)benzofurane-2-carboxylate]	9.8%		162.4 to 163.8 °C
COc1ccc2c(NC(=O)/C=C/c3ccccc3)c(C(C)=O)oc2c1 [Example 120, (E)-N-(2-acetyl-6-methoxybenzofuran-3-yl)-3-phenylacrylamide]	1.32%		142 to 144.5 °C
O=C(/C=C/c1ccccc1)Nc1c(C(=O)O)oc2ccccc12 [Example 121, (E)-3-(3-phenylacryloylamino)benzofurane-2-carboxylic acid]	5.77%		197.8 to 200.2 °C
C/C=C/C(=O)NC(C)c1cc2cccc(OC)c2o1 (stereo not shown) [Example 130, (E)-[1-(7-methoxybenzofuran-2-yl)ethyl]-2-butenamide]	35.44%		128.7 to 130.2 °C
CC(NC(=O)/C=C/c1ccccc1)c1cc2cccc(OCCCCl)c2o1 (stereo not shown) [Example 131, (E)-N-{1-[7-(3-chloropropoxy)benzofuran-2-yl]ethyl}-3-phenylacrylamide]	2.14%		132.2 to 139.7 °C
COc1cccc2cc(C(C)NC(=O)/C=C/c3ccccc3)oc12 (stereo not shown) [Example 132, (E)-N-[1-(7-methoxybenzofuran-2-yl)ethyl]-3-phenylacrylamide]	14.05%		154.5 to 156.5 °C
COc1ccc(NC(=O)/C=C/c2oc3ccc(OC)cc3c2-c2ccc(Cl)cc2)cc1 [Example 141, (E)-3-[3-(4-chlorophenyl)-5-methoxybenzofuran-2-yl]-N-(4-methoxyphenyl)acrylamide]		almost of the same level as or not less than that by ZK158252	194 to 195.1 °C
COc1cccc2cc(/C(Cl)=C/C=C/C(=O)N(C(C)C)C(C)C)oc12 [Example 142, (2E,4Z)-5-chloro-5-(7-methoxybenzofuran-2-yl)penta-2,4-dienoic acid diisopropylamide]		almost of the same level as or not less than that by ZK158252	140.1 to 142 °C
COc1cccc2cc(/C(Cl)=C/C=C/C(=O)N3CCCCC3)oc12 [Example 144, (2E,4Z)-5-chloro-5-(7-methoxybenzofuran-2-yl)-1-piperidin-1-ylpenta-2,4-dien-1-one]		almost of the same level as or not less than that by ZK158252	142.2 to 144.4 °C
COc1ccc2oc(-c3csc(N=CN(C)C)n3)c(-c3ccc(Cl)cc3)c2c1 [Example 219, N′-{4-[3-(4-chlorophenyl)-5-methoxybenzofuran-2-yl]thiazol-2-yl}-N,N-dimethylformamidine]		almost of the same level as or not less than that by ZK158252	142.7 to 144.3 °C
COc1ccc2oc(-c3csc(NC(=O)/C(C#N)=C(/C)O)n3)c(-c3ccc(Cl)cc3)c2c1 [Example 222, (Z)-2-cyano-3-hydroxy-2-butenoic acid {4-[3-(4-chlorophenyl)-5-methoxybenzofuran-2-yl]thiazol-2-yl}amide]		almost of the same level as or not less than that by ZK158252	229.5 to 231 °C
CCOC(=O)CCCOc1cccc2cc(/C(C)=C/C(=O)N(CC)CC)oc12 [Example 224, Ethyl (E)-4-[2-(2-diethylcarbamoyl-1-methylvinyl)benzofuran-7-yloxy]butyrate]		almost of the same level as or not less than that by ZK158252	
